Test results from patent US7829665B2 (priority 2005, dated 2010).

biological target: T1, full-length NS3/NS4A-2 (HCV NS3 protease) (Hepatitis C virus genotype 1a, UniProt P27958); test: NS3-NS4 protease assay / NS3 inhibition assay (RETS1 substrate, fluorescence kinetic read); assay type: biochemical; settings: recombinant E. coli or Baculovirus full-length NS3 with NS4A-2; read-out: NS3-NS4 IC50
T1 construct: Recombinant E. coli or Baculovirus full-length NS3 was diluted to 3.33 μM with assay buffer; made in house; host or cells: E. coli or baculovirus (BV) expression system
Method in brief: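 Ki values come from IC50 fits corrected via Ki=IC50/(1+[S]/Km), with Km 2.03 μM for E. coli and 1.74 μM for baculovirus full-length NS3. Enzyme (2 or 3 nM NS3, respectively, complexed with NS4A-2) sat with compound, top concentration 50 microM, for 10 min at room temperature. Cleavage of RETS1 (8 μM working solution) was then followed by fluorescence (335/495 nm) over 30 min.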

T1 sequence (P27958 1027-1657): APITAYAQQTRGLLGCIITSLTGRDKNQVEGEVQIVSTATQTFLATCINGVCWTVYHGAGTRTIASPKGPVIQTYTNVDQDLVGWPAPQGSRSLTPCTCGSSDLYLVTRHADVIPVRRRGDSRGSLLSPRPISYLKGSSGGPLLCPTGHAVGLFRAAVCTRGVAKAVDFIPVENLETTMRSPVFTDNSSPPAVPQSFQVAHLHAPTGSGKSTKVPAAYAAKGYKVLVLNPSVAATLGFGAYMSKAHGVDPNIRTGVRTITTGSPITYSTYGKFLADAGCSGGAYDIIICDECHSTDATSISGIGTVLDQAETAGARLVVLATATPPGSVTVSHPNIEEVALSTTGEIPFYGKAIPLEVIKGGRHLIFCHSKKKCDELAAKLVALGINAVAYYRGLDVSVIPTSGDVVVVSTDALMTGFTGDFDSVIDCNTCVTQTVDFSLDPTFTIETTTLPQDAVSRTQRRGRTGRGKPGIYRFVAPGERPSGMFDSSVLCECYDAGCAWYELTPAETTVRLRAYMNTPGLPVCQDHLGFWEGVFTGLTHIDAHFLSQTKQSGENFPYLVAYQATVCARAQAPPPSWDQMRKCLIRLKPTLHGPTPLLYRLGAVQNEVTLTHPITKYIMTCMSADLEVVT

Row | Compound | IC50 [µM]
1 | CC(C)(C)OC(=O)N[C@H]1CCCCC/C=C\[C@@H]2C[C@@]2(C(=O)NS(=O)(=O)c2ccccc2Br)NC(=O)[C@@H]2CCCN2C1=O [Compound 2111] | < 10
2 | CC(C)(C)OC(=O)N[C@H]1CCCCC/C=C\[C@@H]2C[C@@]2(C(=O)NS(=O)(=O)c2cccc(Br)c2)NC(=O)[C@@H]2CCCN2C1=O [Compound 2112] | < 10
3 | CC(C)(C)OC(=O)N[C@H]1CCCCC/C=C\[C@@H]2C[C@@]2(C(=O)NS(=O)(=O)c2cccc(F)c2)NC(=O)[C@@H]2CCCN2C1=O [Compound 2113] | < 10
4 | CC(C)(C)OC(=O)N[C@H]1CCCCC/C=C\[C@@H]2C[C@@]2(C(=O)NS(=O)(=O)c2ccc(F)cc2)NC(=O)[C@@H]2CCCN2C1=O [Compound 2114] | < 10
5 | CC(C)(C)OC(=O)N[C@H]1CCCCC/C=C\[C@@H]2C[C@@]2(C(=O)NS(=O)(=O)c2c(Cl)cc(Cl)cc2Cl)NC(=O)[C@@H]2CCCN2C1=O [Compound 2115] | < 0.1
6 | COc1cccc(S(=O)(=O)NC(=O)[C@@]23C[C@H]2/C=C\CCCCC[C@H](NC(=O)OC(C)(C)C)C(=O)N2CCC[C@H]2C(=O)N3)c1 [Compound 2116] | < 10
7 | CC(C)(C)OC(=O)N[C@H]1CCCCC/C=C\[C@@H]2C[C@@]2(C(=O)NS(=O)(=O)Cc2ccccc2Cl)NC(=O)[C@@H]2CCCN2C1=O [Compound 2117] | < 1
8 | CC(C)(C)OC(=O)N[C@H]1CCCCC/C=C\[C@@H]2C[C@@]2(C(=O)NS(=O)(=O)Cc2cccc(Cl)c2)NC(=O)[C@@H]2CCCN2C1=O [Compound 2118] | < 1
9 | CC(C)(C)OC(=O)N[C@H]1CCCCC/C=C\[C@@H]2C[C@@]2(C(=O)NS(=O)(=O)Cc2ccc(Cl)cc2)NC(=O)[C@@H]2CCCN2C1=O [Compound 2119] | < 1
10 | CC(C)(C)OC(=O)N[C@H]1CCCCC/C=C\[C@@H]2C[C@@]2(C(=O)NS(=O)(=O)C2CCCC2)NC(=O)[C@@H]2CCCN2C1=O [Compound 2120] | < 1
11 | CC(C)(C)OC(=O)N[C@H]1CCCCC/C=C\[C@@H]2C[C@@]2(C(=O)NS(=O)(=O)C2CCCCC2)NC(=O)[C@@H]2CCCN2C1=O [Compound 2121] | < 1
12 | COc1ccccc1S(=O)(=O)NC(=O)[C@@]12C[C@H]1/C=C\CCCCC[C@H](NC(=O)OC(C)(C)C)C(=O)N1CCC[C@H]1C(=O)N2 [Compound 2122] | < 1
13 | Cc1cc(Cl)cc(Cl)c1S(=O)(=O)NC(=O)[C@@]12C[C@H]1/C=C\CCCCC[C@H](NC(=O)OC(C)(C)C)C(=O)N1CCC[C@H]1C(=O)N2 [Compound 2123] | < 1
14 | CC(C)(C)OC(=O)N[C@H]1CCCCC/C=C\[C@@H]2C[C@@]2(C(=O)NS(=O)(=O)c2ccccc2F)NC(=O)[C@@H]2CCCN2C1=O [Compound 2124] | < 10
15 | CC(C)(C)OC(=O)N[C@H]1CCCCC/C=C\[C@@H]2C[C@@]2(C(=O)NS(=O)(=O)/C=C/c2ccccc2)NC(=O)[C@@H]2CCCN2C1=O [Compound 2125] | < 1
16 | CC(C)(C)OC(=O)N[C@H]1CCCCC/C=C\[C@@H]2C[C@@]2(C(=O)NS(=O)(=O)c2cc(Cl)sc2Cl)NC(=O)[C@@H]2CCCN2C1=O [Compound 2126] | < 10
17 | CC(C)(C)OC(=O)N[C@H]1CCCCC/C=C\[C@@H]2C[C@@]2(C(=O)NS(=O)(=O)CCc2ccccc2)NC(=O)[C@@H]2CCCN2C1=O [Compound 2127] | < 10
18 | CC(C)(C)OC(=O)N[C@H]1CCCCC/C=C\[C@@H]2C[C@@]2(C(=O)NS(=O)(=O)c2ccc3ccccc3c2)NC(=O)[C@@H]2CCCN2C1=O [Compound 2130] | < 10
19 | CC(C)(C)OC(=O)N[C@H]1CCCCC/C=C\[C@@H]2C[C@@]2(C(=O)NS(=O)(=O)c2ccc(Br)cc2)NC(=O)[C@@H]2CCCN2C1=O [Compound 2131] | < 10
20 | CC(C)(C)OC(=O)N[C@H]1CCCCC/C=C\[C@@H]2C[C@@]2(C(=O)NS(=O)(=O)c2ccc(Cl)s2)NC(=O)[C@@H]2CCCN2C1=O [Compound 2132] | < 10
21 | COc1ccc(S(=O)(=O)NC(=O)[C@@]23C[C@H]2/C=C\CCCCC[C@H](NC(=O)OC(C)(C)C)C(=O)N2CCC[C@H]2C(=O)N3)cc1 [Compound 2133] | < 10
22 | CC(C)(C)OC(=O)N[C@H]1CCCCC/C=C\[C@@H]2C[C@@]2(C(=O)NS(=O)(=O)c2ccc(C#N)cc2)NC(=O)[C@@H]2CCCN2C1=O [Compound 2134] | < 1
23 | CC(C)(C)OC(=O)N[C@H]1CCCCC/C=C\[C@@H]2C[C@@]2(C(=O)NS(=O)(=O)Cc2ccccc2)NC(=O)[C@@H]2CCCN2C1=O [Compound 2135] | < 1
24 | CC(C)(C)OC(=O)N[C@H]1CCCCC/C=C\[C@@H]2C[C@@]2(C(=O)NS(=O)(=O)c2cccs2)NC(=O)[C@@H]2CCCN2C1=O [Compound 2136] | < 10
25 | CC(C)(C)CC(=O)N[C@H]1CCCCC/C=C\[C@@H]2C[C@@]2(C(=O)NS(=O)(=O)C2CC2)NC(=O)C2CCCN2C1=O (stereo partly shown) [Compound 2141] | < 10

Row | Compound | IC50 [µM]
26 | CC[C@@H]1C[C@H]2C(=O)N[C@]3(C(=O)NS(=O)(=O)C4CC4)C[C@H]3/C=C\CCCCC[C@H](NC(=O)OC(C)(C)C)C(=O)N2C1 [Compound 2145] | > 10
27 | CC(C)C[C@@H]1C[C@H]2C(=O)N[C@]3(C(=O)NS(=O)(=O)C4CC4)C[C@H]3/C=C\CCCCC[C@H](NC(=O)OC(C)(C)C)C(=O)N2C1 [Compound 2147, (1S,4R,6S,14S,18R)-tert-Butyl 4-cyclopropylsulfonylaminocarbonyl-2,15-dioxo-3,16-diaza-18-(2-methylpropyl)-tricyclo[14.3.0.0^4,6]nonadec-7-ene-14-yl carbamate] | > 10
28 | CC(C)(C)OC(=O)N[C@H]1CCCCC/C=C\[C@@H]2C[C@@]2(C(=O)NS(=O)(=O)c2cccc(C(F)(F)F)c2)NC(=O)[C@@H]2CCCN2C1=O [Compound 2149] | < 10
29 | CC(C)(C)OC(=O)N[C@H]1CCCCC/C=C\[C@@H]2C[C@@]2(C(=O)NS(=O)(=O)c2cc(Cl)ccc2F)NC(=O)[C@@H]2CCCN2C1=O [Compound 2150] | < 10
30 | CC(C)(C)OC(=O)N[C@H]1CCCCC/C=C\[C@@H]2C[C@@]2(C(=O)NS(=O)(=O)c2cccc(Cl)c2F)NC(=O)[C@@H]2CCCN2C1=O [Compound 2151] | < 1
31 | CC(C)(C)OC(=O)N[C@H]1CCCCC/C=C\[C@@H]2C[C@@]2(C(=O)NS(=O)(=O)c2cccc(C#N)c2)NC(=O)[C@@H]2CCCN2C1=O [Compound 2152] | < 10
32 | CC(C)(C)OC(=O)N[C@H]1CCCCC/C=C\[C@@H]2C[C@@]2(C(=O)NS(=O)(=O)c2cnc(Cl)c(Br)c2)NC(=O)[C@@H]2CCCN2C1=O [Compound 2154] | < 10
33 | CC(C)(C)OC(=O)N[C@H]1CCCCC/C=C\[C@@H]2C[C@@]2(C(=O)NS(=O)(=O)NC2CC2)NC(=O)[C@@H]2CCCN2C1=O [Compound 2201] | < 1
34 | CN(C)S(=O)(=O)NC(=O)[C@@]12C[C@H]1/C=C\CCCCC[C@H](NC(=O)OC(C)(C)C)C(=O)N1CCC[C@H]1C(=O)N2 [Compound 2202] | < 10
35 | CC(C)(C)OC(=O)N[C@H]1CCCCC/C=C\[C@@H]2C[C@@]2(C(=O)NS(N)(=O)=O)NC(=O)[C@@H]2CCCN2C1=O [Compound 2203] | < 1
36 | CC(C)(C)OC(=O)N[C@H]1CCCCC/C=C\[C@@H]2C[C@@]2(C(=O)NS(=O)(=O)N2CCOCC2)NC(=O)[C@@H]2CCCN2C1=O [Compound 2204] | < 1
37 | CC(C)(C)OC(=O)N[C@H]1CCCCC/C=C\[C@@H]2C[C@@]2(C(=O)NS(=O)(=O)NC2CCCCC2)NC(=O)[C@@H]2CCCN2C1=O [Compound 2205] | < 1
38 | CC(C)(C)OC(=O)N[C@H]1CCCCC/C=C\[C@@H]2C[C@@]2(C(=O)NS(=O)(=O)N2CCC2)NC(=O)[C@@H]2CCCN2C1=O [Compound 2206] | < 10
39 | CC(C)(C)OC(=O)N[C@H]1CCCCC/C=C\[C@@H]2C[C@@]2(C(=O)NS(=O)(=O)N2CCCC2)NC(=O)[C@@H]2CCCN2C1=O [Compound 2207] | < 10
40 | CN1CCN(S(=O)(=O)NC(=O)[C@@]23C[C@H]2/C=C\CCCCC[C@H](NC(=O)OC(C)(C)C)C(=O)N2CCC[C@H]2C(=O)N3)CC1 [Compound 2208] | < 1
41 | CC(C)C(C(C)C)S(=O)(=O)NC(=O)[C@@]12C[C@H]1/C=C\CCCCC[C@H](NC(=O)OC(C)(C)C)C(=O)N1CCC[C@H]1C(=O)N2 [Compound 2209] | < 1
42 | CC(C)(C)OC(=O)N[C@H]1CCCCC/C=C\[C@@H]2C[C@@]2(C(=O)NS(=O)(=O)N(CCC#N)C2CC2)NC(=O)[C@@H]2CCCN2C1=O [Compound 2210] | < 1
43 | CN1CCC(N(C2CC2)S(=O)(=O)NC(=O)[C@@]23C[C@H]2/C=C\CCCCC[C@H](NC(=O)OC(C)(C)C)C(=O)N2CCC[C@H]2C(=O)N3)CC1 [Compound 2211] | < 1
44 | CC(C)(C)OC(=O)N[C@H]1CCCCC/C=C\[C@@H]2C[C@@]2(C(=O)NS(=O)(=O)NC2(C#N)CC2)NC(=O)[C@@H]2CCCN2C1=O [Compound 2212] | < 1
45 | CNS(=O)(=O)NC(=O)[C@@]12C[C@H]1/C=C\CCCCC[C@H](NC(=O)OC(C)(C)C)C(=O)N1CCC[C@H]1C(=O)N2 [Compound 2213] | < 10
46 | CC(C)(C)OC(=O)N[C@H]1CCCCC/C=C\[C@@H]2C[C@@]2(C(=O)NS(=O)(=O)N2CCCCC2c2cccnc2)NC(=O)[C@@H]2CCCN2C1=O (stereo partly shown) [Compound 2222] | < 1
47 | CC1CCCC(C)N1S(=O)(=O)NC(=O)[C@@]12C[C@H]1/C=C\CCCCC[C@H](NC(=O)OC(C)(C)C)C(=O)N1CCC[C@H]1C(=O)N2 (stereo partly shown) [Compound 2223] | < 1
48 | CN(c1ccc(Cl)cc1)S(=O)(=O)NC(=O)[C@@]12C[C@H]1/C=C\CCCCC[C@H](NC(=O)OC(C)(C)C)C(=O)N1CCC[C@H]1C(=O)N2 [Compound 2226] | < 10
49 | CN(c1ccccc1)S(=O)(=O)NC(=O)[C@@]12C[C@H]1/C=C\CCCCC[C@H](NC(=O)OC(C)(C)C)C(=O)N1CCC[C@H]1C(=O)N2 [Compound 2227] | < 10
